Results from ChEMBL document CHEMBL1127144, “Cyclopentenones as potential inhibitors of penicillin sensitive enzymes” (Bioorg Med Chem Lett, 1993).
Activity calls are given as the source filed them. The calls are words filed in the database; no cut-off is given here.

Columns and labels:
[1] = test system: Bacillus subtilis; assay: Compound was evaluated for antibacterial activity against Bacillus subtilis ATCC 6633; Inactive; assay type: functional, organism-based
[2] = target: Beta-lactamase TEM (Escherichia coli) (UniProt P62593); assay: Compound was evaluated for the inhibitory activity against beta-lactamase of Escherichia coli (TEM-1); Inactive
Beta-lactamase TEM (Escherichia coli), sequence (P62593 whole entry): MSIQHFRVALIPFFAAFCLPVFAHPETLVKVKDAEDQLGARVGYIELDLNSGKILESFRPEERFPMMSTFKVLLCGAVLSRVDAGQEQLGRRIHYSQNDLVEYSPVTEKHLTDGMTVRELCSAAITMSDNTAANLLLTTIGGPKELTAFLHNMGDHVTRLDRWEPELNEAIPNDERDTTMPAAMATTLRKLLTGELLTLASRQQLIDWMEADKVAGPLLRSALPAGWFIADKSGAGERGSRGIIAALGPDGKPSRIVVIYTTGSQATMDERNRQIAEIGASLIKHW

[3] = target: Beta-lactamase (Enterobacter cloacae) (UniProt P05364); assay: Compound was evaluated for the inhibitory activity against beta-lactamase of Enterobacter cloacae P99; Inactive
Beta-lactamase (Enterobacter cloacae), sequence (P05364 21-381 limits assumed): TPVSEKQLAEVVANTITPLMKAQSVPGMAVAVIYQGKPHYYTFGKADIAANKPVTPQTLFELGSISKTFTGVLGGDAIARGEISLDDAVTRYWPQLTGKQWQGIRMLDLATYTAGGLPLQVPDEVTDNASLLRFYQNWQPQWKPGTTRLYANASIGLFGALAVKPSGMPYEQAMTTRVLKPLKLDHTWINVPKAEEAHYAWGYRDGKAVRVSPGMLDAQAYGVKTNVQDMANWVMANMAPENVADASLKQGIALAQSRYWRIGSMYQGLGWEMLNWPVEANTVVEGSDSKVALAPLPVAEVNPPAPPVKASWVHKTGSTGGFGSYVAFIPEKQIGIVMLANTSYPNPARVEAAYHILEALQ

[4] = target: T1, Beta-lactamase 1 (Bacillus cereus) (UniProt P00809); assay: Compound was evaluated for the inhibitory activity against beta-lactamase of Bacillus cereus; Inactive
T1 sequence (whole entry): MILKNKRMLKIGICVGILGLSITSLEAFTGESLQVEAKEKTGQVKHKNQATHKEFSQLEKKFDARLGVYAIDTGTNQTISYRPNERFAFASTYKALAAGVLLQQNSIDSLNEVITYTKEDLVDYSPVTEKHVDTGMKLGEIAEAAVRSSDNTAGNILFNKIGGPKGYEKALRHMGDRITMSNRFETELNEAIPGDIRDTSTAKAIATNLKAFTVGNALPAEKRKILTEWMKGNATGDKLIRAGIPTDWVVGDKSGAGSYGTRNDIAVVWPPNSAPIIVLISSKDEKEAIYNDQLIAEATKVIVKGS

[5] = test system: Streptomyces; assay: Compound was evaluated for the inhibitory activity against D, D-carboxypeptidase of Streptomyces R39; Inactive
[6] = test system: Enterococcus faecalis; assay: Compound was evaluated for antibacterial activity against […] I; Inactive; assay type: functional, organism-based
[7] = test system: Escherichia coli; assay: Compound was evaluated for antibacterial activity against Escherichia coli ESS; Inactive; assay type: functional, organism-based
[8] = test system: mycobacterium catarrhalis; assay: Compound was evaluated for antibacterial activity against Mycobacterium catarrhalis 1502; Inactive; assay type: functional
[9] = test system: Pseudomonas aeruginosa; assay: Compound was evaluated for antibacterial activity against Pseudomonas aeruginosa 447B-ES48; Inactive; assay type: functional, organism-based
[10] = test system: Streptococcus pneumoniae; assay: Compound was evaluated for antibacterial activity against Streptococcus pneumoniae 1761; Inactive; assay type: functional, organism-based
[11] = test system: Streptococcus agalactiae; assay: Compound was evaluated for antibacterial activity against Streptococcus agalactiae Hester; Inactive; assay type: functional, organism-based
[12] = test system: Staphylococcus aureus; assay: Compound was evaluated for antibacterial activity against Staphylococcus aureus Oxford; Inactive; assay type: functional, organism-based
[13] = test system: Streptococcus pyogenes; assay: Compound was evaluated for antibacterial activity against Streptococcus pyogenes CN10; Inactive; assay type: functional, organism-based
[14] = test system: Haemophilus influenzae; assay: Compound was evaluated for antibacterial activity against Haemophilus influenzae Q1; Inactive; assay type: functional, organism-based
[15] = target: Beta-lactamase (Streptomyces albus G) (UniProt P14559); assay: Compound was evaluated for the inhibitory activity against beta-lactamase of Streptomyces albus G; Inactive
Beta-lactamase (Streptomyces albus G), sequence (P14559 whole entry, looked up): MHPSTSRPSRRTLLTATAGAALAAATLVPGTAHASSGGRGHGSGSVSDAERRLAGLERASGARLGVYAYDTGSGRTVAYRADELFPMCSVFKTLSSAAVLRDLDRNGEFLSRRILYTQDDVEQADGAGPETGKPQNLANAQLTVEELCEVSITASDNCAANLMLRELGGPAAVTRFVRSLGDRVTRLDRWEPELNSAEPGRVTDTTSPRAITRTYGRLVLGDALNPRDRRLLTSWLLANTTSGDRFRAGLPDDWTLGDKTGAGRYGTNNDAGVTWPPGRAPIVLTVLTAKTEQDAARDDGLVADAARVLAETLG

Activity [2]	Activity [3]	Activity [4]	Activity [5]	Activity [15]	SMILES	Activity [1]	Activity [6]	Activity [7]	Activity [8]	Activity [9]	Activity [10]	Activity [11]	Activity [12]	Activity [13]	Activity [14]
inactive	inactive	inactive	inactive	inactive	NC1C=C(CC(=O)O)C(=O)C1 (stereo not given)	inactive	inactive	inactive	inactive	inactive	inactive	inactive	inactive	inactive	inactive
inactive	inactive	inactive	inactive	inactive	CO/N=C(/C(=O)NC1C=C(CC(=O)O)C(=O)C1)c1csc(N)n1 (stereo not given)	inactive	inactive	inactive	inactive	inactive	inactive	inactive	inactive	inactive	inactive
inactive	inactive	inactive	inactive	inactive	O=C(O)CC1=CC(NC(=O)Cc2ccccc2)CC1=O (stereo not given)	inactive	inactive	inactive	inactive	inactive	inactive	inactive	inactive	inactive	inactive
